According to patent US4965280A, “Antifungal carbinols” (E. I. Du Pont de Nemours and Company, priority 1989, dated 1990):

Assays:
Rhizoctonia solani = experiment: Example F rice sheath blight; format: in vivo; conditions: Rhizoctonia solani, 144 h, read-out: disease control rating, Ex. F
Procedure, shortened: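 Application rates were 100 or 20 ppm, delivered as a foliar spray to the point of run-off on rice seedlings. The formulation used 6% acetone in water with 250 ppm surfactant.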

PURPLE NUTSEDGE = experiment: Test D; format: in vivo, Cyperus rotundus
[1] = test system: Fusarium oxysporum f. sp. cucumerinum; experiment: Example L cucumber wilt; format: in vivo; conditions: 336 h, 5 kg/ha, read-out: disease control rating, Ex. L
Procedure: […] Seeds and soil were then inoculated with a mixture of sand, cereal and mycelium of the fungus Fusarium oxysporum f. sp. cucumerinum, causal agent of cucumber wilt, and incubated in a growth chamber at 30° C. for 14 days. Disease ratings were then made.

Pyricularia oryzae = experiment: whole plant or invertebrate; format: in vivo; conditions: Pyricularia oryzae, 120 h
[2] = test system: Candida albicans ATCC 11651; experiment: In vitro antifungal MIC, microtiter broth dilution; conditions: Candida albicans, ATCC11651, 24 h, read-out: MIC values, C. albicans, 30°, 24 hours
WATERCHESTNUT = experiment: Test C rice paddy; format: in vivo, Eleocharis spp.; conditions: Eleocharis, 504 h, 21 days, read-out: plant response
Source text: (§1) Sixteen cm diameter Airlite plastic pots were partially filled with Tama slit loam soil and the soil saturated with water. Japonica and Indica rice seedlings a the 2.0 to 2.5 leaf stage were transplanted into 1/3 of the pots. Into another third of the pots were transplanted seedling or sprouted tubers of water plantain (Alisma trivale), Scripus (Scirpus paludosus), Cyperus (Cyperus esculentus), and arrowhead (Sagittaria spp.). The remaining pots were planted with barnyardgrass (Echinochloa crusgalli) seeds and sprouted tubes of water chestnut (Eleocharis spp.). These weeds all represent major rice weeds or genera of weeds important in rice. Three to four days after planting, the water level was raised to 3 cm (about 1200 ml/pot) and maintained a this level throughout the test. Chemical treatments were applied directly to the paddy water, within 24 hours of raising the water, after being formulated in a nonphytotoxic solvent. The pots were maintained in the greenhouse.

Puccinia recondita = experiment: Example G wheat leaf rust; format: in vivo; conditions: 20 PPM, read-out: disease control rating, Ex. G
Botrytis cinerea = experiment: Example C bean grey mold; format: in vivo; conditions: Botrytis cinerea, 24 h, read-out: disease control rating, Ex. C
Procedure, shortened: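 At 20 or 100 ppm, each compound was applied as an aqueous suspension (acetone 6% final; TREM 014 250 ppm) sprayed onto young broad bean plants to the point of run-off.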

LARGE CRABGRASS = experiment: Test D; format: in vivo, Digitaria sanguinalis
BARNYARDGRASS = experiment: Test C rice paddy; format: in vivo, Echinochloa crusgalli; conditions: Echinochloa crus-galli, 504 h, 21 days, read-out: plant response
Source text: as §1

ARROWHEAD = experiment: Test C rice paddy; format: in vivo, Sagittaria spp.; conditions: Sagittaria, 504 h, 21 days, read-out: plant response
Source text: as §1

Venturia inaequalis = experiment: Example A apple scab; format: in vivo; conditions: 20 PPM, read-out: disease control rating, Ex. A
Procedure, shortened: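 First, compounds are taken up in acetone amounting to 6% of the final volume. Next, they are suspended in purified water with 250 ppm TREM 014 at 100 or 20 ppm. Finally, seedlings of apple are sprayed until run-off.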

[3] = test system: Aspergillus fumigatus ATCC 28214; experiment: In vitro antifungal MIC, microtiter broth dilution; conditions: Aspergillus fumigatus, ATCC28214, 24 h, read-out: MIC values, A. fumigatus, 30°, 24 hours
PERLITE CORN = experiment: Test D, soil covered with perlite; format: in vivo, Zea mays
Procedure: The Corn and Sorghum Herbicide Test included the following species in both the preemergence and postemergence evaluations:
Postemergence plantings were grown in Sassafras sandy loam soil. Corn and soybeans were grown in separate 25 cm diameter containers. Sorghum and the seven grass weed species were grown in two 18 cm diameter containers, 4 species per container. The seven broadleaf weed species were also grown in two 18 cm diameter containers, 4 species in one container, 3 species in the second container. One additional planting of corn in an 18 cm diameter container was made. The soil surface of this additional container of corn was covered with the absorbent, perlite, before spray treatment so that test chemicals would enter the plant only via the foliage. The plants were grown 10-21 days, dependent upon the species and then sprayed postemergence with the test chemicals dissolved in a nonpytotoxic solvent.
Treated plants and controls were maintained in the greenhouse for 2 to 4 weeks. Visual planting response ratings were made on a percentage scale of 0 to 100 in comparison with a control where 0=no injury, and 100=death.

C=C(c1ccccc1Cl)C(O)(Cn1cncn1)c1ccc(Cl)cc1Cl (centres unmarked) [Example 33, 2-(2,4-Dichlorophenyl)-3-(2-chlorophenyl)-1-(1H-1,2,4-triazol-1-yl)-3-buten-2-ol]
10%: pest or weed control at 125 g/ha (BARNYARDGRASS; 0125 G/HA)
95%: pest or weed control at 1000 g/ha (BARNYARDGRASS; 1000 G/HA)
37%: pest or weed control at 20 ppm (Botrytis cinerea; 20 PPM)
100%: pest or weed control at 20 ppm (Puccinia recondita)
70%: pest or weed control at 500 g/ha (BARNYARDGRASS; 0500 G/HA)
56%: pest or weed control at 100 ppm (Botrytis cinerea; 100 PPM)
29%: pest or weed control at 20 ppm (Rhizoctonia solani; 20 PPM)
60%: pest or weed control at 100 ppm (Rhizoctonia solani; 100 PPM)
80%: pest or weed control at 250 g/ha (BARNYARDGRASS; 0250 G/HA)
0.03 µg/mL: MIC [2] | MIC [3]
0%: plant response (PURPLE NUTSEDGE; POSTEMERGENCE 0250 GM/HA) | plant response (PURPLE NUTSEDGE; POSTEMERGENCE 0500 GM/HA) | plant response (PURPLE NUTSEDGE; POSTEMERGENCE 1000 GM/HA) | plant response (PURPLE NUTSEDGE; PREEMERGENCE 0250 GM/HA) | plant response (PURPLE NUTSEDGE; PREEMERGENCE 0500 GM/HA) | plant response (PURPLE NUTSEDGE; PREEMERGENCE 1000 GM/HA) | pest or weed control at 5000 g/ha [1] | pest or weed control at 20 ppm (Pyricularia oryzae; read-out: disease control rating, Ex. E, 20 PPM) | pest or weed control at 100 ppm (Pyricularia oryzae; read-out: disease control rating, Ex. E, 100 PPM) | pest or weed control at 64 g/ha (WATERCHESTNUT; 0064 G/HA) | pest or weed control at 125 g/ha (WATERCHESTNUT; 0125 G/HA) | pest or weed control at 250 g/ha (WATERCHESTNUT; 0250 G/HA) | pest or weed control at 500 g/ha (WATERCHESTNUT; 0500 G/HA) | pest or weed control at 1000 g/ha (WATERCHESTNUT; 1000 G/HA) | plant response (LARGE CRABGRASS; POSTEMERGENCE 0250 GM/HA) | plant response (LARGE CRABGRASS; POSTEMERGENCE 0500 GM/HA) | plant response (LARGE CRABGRASS; POSTEMERGENCE 1000 GM/HA) | plant response (LARGE CRABGRASS; PREEMERGENCE 0250 GM/HA) | plant response (LARGE CRABGRASS; PREEMERGENCE 0500 GM/HA) | plant response (LARGE CRABGRASS; PREEMERGENCE 1000 GM/HA) | pest or weed control at 64 g/ha (BARNYARDGRASS; 0064 G/HA) | pest or weed control at 64 g/ha (ARROWHEAD; 0064 G/HA) | pest or weed control at 125 g/ha (ARROWHEAD; 0125 G/HA) | pest or weed control at 250 g/ha (ARROWHEAD; 0250 G/HA) | pest or weed control at 500 g/ha (ARROWHEAD; 0500 G/HA) | pest or weed control at 1000 g/ha (ARROWHEAD; 1000 G/HA) | plant response (PERLITE CORN; POSTEMERGENCE 0250 GM/HA) | plant response (PERLITE CORN; POSTEMERGENCE 0500 GM/HA) | plant response (PERLITE CORN; POSTEMERGENCE 1000 GM/HA)
47%: pest or weed control at 20 ppm (Venturia inaequalis)
